# Calls of active or inactive are those of the source.
# How the values were obtained:
# [1] = inhibitors of firefly luciferase expression or activity, dose response, H4 neuroglioma cells, luminescence (AID 1990); format: functional, cell-based
# [2] = luciferase reporter signal reduction – luminescence, H4-C neuroglioblastoma cells, dose response (AID 2458); format: functional, cell-based;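 also: H4 neuroglioblastoma cells stably carrying a luciferase reporter gene fusion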
# cells = format: functional, cell-based
# [3] = Luminescence Cell-Based Dose Response HTS to Identify Inhibitors of 5'UTR Stem-Loop Driven Prion Protein mRNA Translation in H4 Neuroglioblastoma Cells. [Related pubchem assays: 1827 (Project Summary), 1813 (Primary HTS)]; format: functional
# [4] = inhibitors of SNCA 5'UTR-driven reporter translation, confirmation, H4 neuroglioma cells, luminescence (AID 1988); format: functional, cell-based
# [5] = Luminescence-based counterscreen assay for KLF5 inhibitors: dose response cell-based high throughput screening assay to identify cytotoxic compounds using the IEC-6 intestinal epithelial cell line. [Related pubchem assays: 1700 (Primary screen.), 1834 (Confirmation screen.), 1858 (Summary AID.), 1905 (Counterscreen.)]; format: functional
# [6] = target: Heat shock protein HSP 90-alpha (Homo sapiens, UniProt P07900); assay: Luminescence-based dose response biochemical high throughput screening assay for inhibitors of the Heat Shock Protein 90 (HSP90). [Related pubchem assays: 1831 (Summary AID.), 1846 (Confirmation screen.), 1789 (Primary screen.)]
# [7] = inhibitors of SNCA 5'UTR-driven translation, confirmation, luminescence, H4 neuroglioblastoma cells, dose confirmation (AID 2454); format: functional, cell-based;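 also: H4 neuroglioblastoma cells carrying an alpha-synuclein 5'UTR luciferase reporter; potency for inhibition of the luciferase signal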
# [8] = cytotoxicity in HEK-293T cells, dose response, cytotoxicity control for TCR NF-kB inhibitor project, luminescence, T-cell screen hits (AID 489026); format: functional, cell-based;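 also: cells exposed to compound about 14 hours before the viability readout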
# [9] = target: T1, Histone-lysine N-methyltransferase NSD2 (Homo sapiens, UniProt O96028); format: biochemical
# T1 sequence (O96028 whole entry): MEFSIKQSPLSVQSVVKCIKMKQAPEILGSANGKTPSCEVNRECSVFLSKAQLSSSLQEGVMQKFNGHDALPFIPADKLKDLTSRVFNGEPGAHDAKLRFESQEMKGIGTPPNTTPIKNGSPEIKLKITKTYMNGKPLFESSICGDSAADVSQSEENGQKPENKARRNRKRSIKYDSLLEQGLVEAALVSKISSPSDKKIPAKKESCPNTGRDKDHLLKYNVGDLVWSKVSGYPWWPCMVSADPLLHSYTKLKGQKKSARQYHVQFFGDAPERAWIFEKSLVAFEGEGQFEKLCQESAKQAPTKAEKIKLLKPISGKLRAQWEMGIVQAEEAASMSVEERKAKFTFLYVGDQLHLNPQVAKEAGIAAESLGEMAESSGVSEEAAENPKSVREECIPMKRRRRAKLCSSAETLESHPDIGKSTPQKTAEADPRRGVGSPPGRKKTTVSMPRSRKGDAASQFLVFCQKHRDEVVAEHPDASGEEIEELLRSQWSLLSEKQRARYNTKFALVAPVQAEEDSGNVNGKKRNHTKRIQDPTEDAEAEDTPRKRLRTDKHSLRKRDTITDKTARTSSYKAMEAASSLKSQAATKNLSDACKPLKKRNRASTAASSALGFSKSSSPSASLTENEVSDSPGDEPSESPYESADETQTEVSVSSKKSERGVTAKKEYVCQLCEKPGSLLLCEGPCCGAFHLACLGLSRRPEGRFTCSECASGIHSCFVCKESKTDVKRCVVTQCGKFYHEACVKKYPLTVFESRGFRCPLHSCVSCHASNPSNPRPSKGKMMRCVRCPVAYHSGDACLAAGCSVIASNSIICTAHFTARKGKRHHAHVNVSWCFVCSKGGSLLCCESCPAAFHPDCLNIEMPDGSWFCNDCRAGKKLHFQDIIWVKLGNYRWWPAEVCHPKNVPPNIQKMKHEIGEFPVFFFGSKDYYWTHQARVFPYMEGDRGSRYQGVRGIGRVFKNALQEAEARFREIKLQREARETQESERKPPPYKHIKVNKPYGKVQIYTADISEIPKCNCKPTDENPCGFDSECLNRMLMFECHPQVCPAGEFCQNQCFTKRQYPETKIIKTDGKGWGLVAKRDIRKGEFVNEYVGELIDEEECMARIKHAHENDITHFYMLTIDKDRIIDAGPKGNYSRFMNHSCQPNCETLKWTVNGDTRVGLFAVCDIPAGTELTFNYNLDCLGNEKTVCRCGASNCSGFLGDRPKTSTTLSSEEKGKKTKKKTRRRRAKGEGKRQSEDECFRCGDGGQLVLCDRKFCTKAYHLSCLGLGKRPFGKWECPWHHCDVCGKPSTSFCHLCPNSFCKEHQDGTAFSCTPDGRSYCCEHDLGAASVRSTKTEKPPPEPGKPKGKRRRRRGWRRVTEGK
# Vasopressin V1a receptor = Vasopressin V1a receptor (Homo sapiens, UniProt P37288); assay: Counterscreen for Oxytocin Receptor (OXTR) agonists: Fluorescence-based cell-based high throughput dose response assay to identify agonists of the vasopressin 1 receptor (V1R). [Related pubchem assays: 2435 (Primary screen (OXTR agonists in singlicate)), 434991 (Counterscreen (V1R agonists in triplicate)), 2482 (Summary (OXTR agonists)) …; format: functional
# Sequence of Vasopressin V1a receptor (P37288 whole entry): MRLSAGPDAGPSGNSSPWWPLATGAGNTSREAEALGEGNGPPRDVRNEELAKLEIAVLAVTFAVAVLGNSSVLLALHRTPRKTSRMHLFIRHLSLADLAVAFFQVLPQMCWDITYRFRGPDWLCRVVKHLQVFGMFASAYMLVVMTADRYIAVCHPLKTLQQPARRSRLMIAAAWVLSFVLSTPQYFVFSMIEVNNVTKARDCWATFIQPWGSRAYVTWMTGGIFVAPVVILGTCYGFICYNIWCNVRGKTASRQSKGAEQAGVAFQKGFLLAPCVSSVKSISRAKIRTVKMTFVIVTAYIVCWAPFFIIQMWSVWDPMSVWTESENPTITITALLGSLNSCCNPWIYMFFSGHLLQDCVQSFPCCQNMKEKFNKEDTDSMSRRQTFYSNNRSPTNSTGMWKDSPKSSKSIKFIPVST
# Oxytocin receptor = Oxytocin receptor (Homo sapiens, UniProt P30559); assay: Fluorescence-based cell-based high throughput dose response assay for agonists of the Oxytocin Receptor (OXTR). [Related pubchem assays: 2435 (Primary screen (OXTR agonists in singlicate)), 434991 (Counterscreen (V1R agonists in triplicate)), 2482 (Summary (OXTR agonists)), 434963 (Confirmation screen (OXTR agonists in triplicate))]; format: functional
# Sequence of Oxytocin receptor (P30559 whole entry): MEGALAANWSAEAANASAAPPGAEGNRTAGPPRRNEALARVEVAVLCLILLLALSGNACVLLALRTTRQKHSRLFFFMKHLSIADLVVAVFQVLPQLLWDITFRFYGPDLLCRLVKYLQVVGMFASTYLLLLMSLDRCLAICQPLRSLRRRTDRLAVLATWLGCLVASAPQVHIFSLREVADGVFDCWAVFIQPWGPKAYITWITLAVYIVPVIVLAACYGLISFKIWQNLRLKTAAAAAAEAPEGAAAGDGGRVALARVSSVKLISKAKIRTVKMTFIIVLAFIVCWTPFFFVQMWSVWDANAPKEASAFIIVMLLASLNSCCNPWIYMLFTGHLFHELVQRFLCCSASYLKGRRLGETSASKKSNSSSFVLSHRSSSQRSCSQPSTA
# [10] = target: Eukaryotic translation initiation factor 4H (Homo sapiens, UniProt Q15056); assay: human eIF4H binding inhibitors, primary screen, translation initiation inhibitor project, biochemical, uHTS, fluorescence polarization (AID 2012)
# [11] = target: Polyadenylate-binding protein 1 (Homo sapiens, UniProt P11940); assay: PABP poly(A) RNA binding inhibitors, primary screen, biochemical, fluorescence polarization, uHTS (AID 2014)
# Sequence of Polyadenylate-binding protein 1 (P11940 whole entry): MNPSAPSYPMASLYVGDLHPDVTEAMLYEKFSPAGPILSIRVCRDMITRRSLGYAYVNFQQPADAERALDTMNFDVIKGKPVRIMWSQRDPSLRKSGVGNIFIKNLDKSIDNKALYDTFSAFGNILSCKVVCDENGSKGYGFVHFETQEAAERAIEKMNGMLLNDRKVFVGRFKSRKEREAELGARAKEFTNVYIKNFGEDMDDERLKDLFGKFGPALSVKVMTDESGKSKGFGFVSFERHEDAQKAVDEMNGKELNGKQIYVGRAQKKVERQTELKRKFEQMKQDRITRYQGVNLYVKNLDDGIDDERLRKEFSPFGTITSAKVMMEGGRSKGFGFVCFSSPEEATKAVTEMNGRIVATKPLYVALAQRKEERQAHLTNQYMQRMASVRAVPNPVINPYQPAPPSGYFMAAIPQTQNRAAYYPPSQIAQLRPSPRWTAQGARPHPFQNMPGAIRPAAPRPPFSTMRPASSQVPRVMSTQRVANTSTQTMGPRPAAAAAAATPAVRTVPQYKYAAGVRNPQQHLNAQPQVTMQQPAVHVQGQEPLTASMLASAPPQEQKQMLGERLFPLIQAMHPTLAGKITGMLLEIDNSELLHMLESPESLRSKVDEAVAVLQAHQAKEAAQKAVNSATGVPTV
# [12] = target: DNA dC->dU-editing enzyme APOBEC-3A (Homo sapiens, UniProt P31941); assay: Dose Response confirmation of small molecule APOBEC3A DNA Deaminase Inhibitors via a fluorescence-based single-stranded DNA deaminase assay. [Related pubchem assays (depositor defined):AID493011, AID493024]; format: functional
# Sequence of DNA dC->dU-editing enzyme APOBEC-3A (P31941 whole entry): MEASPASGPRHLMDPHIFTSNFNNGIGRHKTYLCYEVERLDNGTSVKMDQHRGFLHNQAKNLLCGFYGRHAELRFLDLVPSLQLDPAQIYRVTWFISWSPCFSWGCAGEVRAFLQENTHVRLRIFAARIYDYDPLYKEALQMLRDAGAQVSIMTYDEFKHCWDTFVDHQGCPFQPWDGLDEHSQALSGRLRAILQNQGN
# [13] = target: DNA dC->dU-editing enzyme APOBEC-3G (Homo sapiens, UniProt Q9HC16); format: functional;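 also: Dose-response counterscreen measuring inhibition of APOBEC3G DNA deaminase activity, run while confirming APOBEC3A inhibitors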
# Sequence of DNA dC->dU-editing enzyme APOBEC-3G (Q9HC16 whole entry): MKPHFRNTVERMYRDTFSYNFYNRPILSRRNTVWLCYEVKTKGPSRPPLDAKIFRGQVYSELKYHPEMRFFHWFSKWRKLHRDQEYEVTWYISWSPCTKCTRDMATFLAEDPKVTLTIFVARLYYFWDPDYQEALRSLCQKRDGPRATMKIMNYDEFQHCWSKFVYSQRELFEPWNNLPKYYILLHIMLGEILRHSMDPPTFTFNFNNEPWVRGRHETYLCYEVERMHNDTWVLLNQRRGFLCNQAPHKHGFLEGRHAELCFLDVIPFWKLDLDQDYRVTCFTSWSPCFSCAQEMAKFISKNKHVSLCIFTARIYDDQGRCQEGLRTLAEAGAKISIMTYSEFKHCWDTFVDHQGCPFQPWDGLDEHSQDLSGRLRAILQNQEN
# Cytochrome P450 2C9 = Cytochrome P450 2C9 (Homo sapiens, UniProt P11712); details: Potency
# Sequence of Cytochrome P450 2C9 (P11712 whole entry): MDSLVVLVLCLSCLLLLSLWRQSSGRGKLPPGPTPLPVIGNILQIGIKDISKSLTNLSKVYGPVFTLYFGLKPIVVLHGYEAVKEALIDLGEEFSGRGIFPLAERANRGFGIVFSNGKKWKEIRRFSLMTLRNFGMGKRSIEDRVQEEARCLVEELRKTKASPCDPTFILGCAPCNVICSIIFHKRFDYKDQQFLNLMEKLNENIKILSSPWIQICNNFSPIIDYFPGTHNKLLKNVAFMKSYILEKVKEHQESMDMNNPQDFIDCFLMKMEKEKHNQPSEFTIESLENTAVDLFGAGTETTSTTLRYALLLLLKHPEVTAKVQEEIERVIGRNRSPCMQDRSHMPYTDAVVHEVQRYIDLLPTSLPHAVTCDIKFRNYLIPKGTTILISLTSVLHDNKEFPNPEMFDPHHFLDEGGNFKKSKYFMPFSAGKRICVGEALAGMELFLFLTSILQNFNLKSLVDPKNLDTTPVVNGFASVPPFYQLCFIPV
# Hexokinase HKDC1 = target: T2, Hexokinase HKDC1 (Homo sapiens, UniProt Q2TB90); assay: HKDC1 hexokinase inhibitors, dose response, biochemical, W721R variant (AID 504729); format: functional
# T2 sequence (Q2TB90 whole entry): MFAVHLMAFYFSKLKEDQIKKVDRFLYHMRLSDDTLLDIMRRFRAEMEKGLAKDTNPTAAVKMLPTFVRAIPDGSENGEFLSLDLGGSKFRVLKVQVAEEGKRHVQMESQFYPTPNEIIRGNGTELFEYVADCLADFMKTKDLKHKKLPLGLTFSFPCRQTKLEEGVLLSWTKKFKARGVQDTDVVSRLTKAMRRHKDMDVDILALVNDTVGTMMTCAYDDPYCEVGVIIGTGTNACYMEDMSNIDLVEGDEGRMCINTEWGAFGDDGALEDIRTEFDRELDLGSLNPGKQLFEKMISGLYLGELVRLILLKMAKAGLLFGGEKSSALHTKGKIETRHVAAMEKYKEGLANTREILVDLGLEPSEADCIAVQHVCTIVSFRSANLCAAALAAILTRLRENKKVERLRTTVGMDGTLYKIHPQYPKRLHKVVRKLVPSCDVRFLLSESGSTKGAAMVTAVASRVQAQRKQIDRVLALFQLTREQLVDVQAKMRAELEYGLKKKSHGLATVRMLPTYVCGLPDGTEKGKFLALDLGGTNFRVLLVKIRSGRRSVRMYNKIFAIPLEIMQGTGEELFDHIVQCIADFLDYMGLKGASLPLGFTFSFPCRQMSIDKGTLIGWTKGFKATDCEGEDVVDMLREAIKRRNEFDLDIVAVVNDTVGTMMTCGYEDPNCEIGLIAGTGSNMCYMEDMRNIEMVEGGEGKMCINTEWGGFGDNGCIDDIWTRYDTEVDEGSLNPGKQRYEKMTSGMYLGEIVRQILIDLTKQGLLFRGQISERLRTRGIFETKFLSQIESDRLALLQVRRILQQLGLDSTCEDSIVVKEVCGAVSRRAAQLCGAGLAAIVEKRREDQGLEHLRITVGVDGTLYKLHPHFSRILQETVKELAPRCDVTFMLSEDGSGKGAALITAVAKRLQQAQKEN
# Aspartyl aminopeptidase = Aspartyl aminopeptidase (Plasmodium falciparum 3D7, UniProt Q8I2J3)
# Sequence of Aspartyl aminopeptidase (Q8I2J3 whole entry): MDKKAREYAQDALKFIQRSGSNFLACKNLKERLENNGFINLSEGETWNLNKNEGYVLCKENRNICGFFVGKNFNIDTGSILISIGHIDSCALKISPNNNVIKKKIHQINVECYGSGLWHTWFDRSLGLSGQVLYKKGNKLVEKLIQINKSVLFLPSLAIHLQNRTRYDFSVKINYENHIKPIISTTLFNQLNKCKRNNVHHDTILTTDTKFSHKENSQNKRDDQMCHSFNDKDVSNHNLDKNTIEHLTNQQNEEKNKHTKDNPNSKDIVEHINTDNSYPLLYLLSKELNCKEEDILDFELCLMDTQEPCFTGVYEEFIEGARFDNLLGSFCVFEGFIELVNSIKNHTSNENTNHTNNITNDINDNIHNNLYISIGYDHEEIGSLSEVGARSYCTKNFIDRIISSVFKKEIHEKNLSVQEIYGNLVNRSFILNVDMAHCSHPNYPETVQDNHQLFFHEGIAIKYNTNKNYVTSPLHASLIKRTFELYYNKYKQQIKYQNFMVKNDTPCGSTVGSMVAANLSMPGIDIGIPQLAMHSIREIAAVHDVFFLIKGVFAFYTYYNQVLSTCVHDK
# Procathepsin L = Procathepsin L (Homo sapiens, UniProt P07711)
# Sequence of Procathepsin L (P07711 whole entry): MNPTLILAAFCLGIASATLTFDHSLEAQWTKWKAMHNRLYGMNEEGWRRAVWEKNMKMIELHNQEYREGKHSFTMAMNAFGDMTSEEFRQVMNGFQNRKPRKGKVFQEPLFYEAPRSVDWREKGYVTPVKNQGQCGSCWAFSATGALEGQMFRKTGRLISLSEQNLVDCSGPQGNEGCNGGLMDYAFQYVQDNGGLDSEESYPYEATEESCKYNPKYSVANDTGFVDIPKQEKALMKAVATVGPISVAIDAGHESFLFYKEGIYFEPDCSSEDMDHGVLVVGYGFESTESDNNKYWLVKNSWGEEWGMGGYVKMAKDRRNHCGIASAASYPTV
# [14] = target: T3, Dual specificity protein phosphatase 3 (Homo sapiens, UniProt P51452); assay: SAR VHR1 absorbance Assay for In Vitro dose response studies. [Related pubchem assays (depositor defined):AID1654, AID1661, AID1878, AID1992, AID2004]
# T3 sequence (P51452 whole entry): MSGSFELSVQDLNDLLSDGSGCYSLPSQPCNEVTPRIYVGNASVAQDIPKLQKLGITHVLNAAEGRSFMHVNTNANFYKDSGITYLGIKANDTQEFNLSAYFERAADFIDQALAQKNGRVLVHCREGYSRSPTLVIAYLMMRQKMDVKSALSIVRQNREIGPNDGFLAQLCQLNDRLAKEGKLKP
# [15] = target: T3, Dual specificity protein phosphatase 3; assay: SAR VHR1 Fluorescent Assay for In Vitro dose response studies. [Related pubchem assays (depositor defined):AID1654, AID1661, AID1878, AID1992, AID2004, AID2070, AID2085]; format: functional
# [16] = target: T3, Dual specificity protein phosphatase 3; assay: MOA VHR1 Fluorescent secondary assay for identification of redox-state modulating compounds. [Related pubchem assays (depositor defined):AID1654, AID1661, AID1878, AID1957]
# [17] = target: T4, Tyrosine-protein phosphatase non-receptor type 7 (Homo sapiens, UniProt P35236); assay: redox-dependent HePTP inhibition, mechanism study, biochemical, fluorescence (AID 2068); format: functional
# T4 sequence (P35236 whole entry): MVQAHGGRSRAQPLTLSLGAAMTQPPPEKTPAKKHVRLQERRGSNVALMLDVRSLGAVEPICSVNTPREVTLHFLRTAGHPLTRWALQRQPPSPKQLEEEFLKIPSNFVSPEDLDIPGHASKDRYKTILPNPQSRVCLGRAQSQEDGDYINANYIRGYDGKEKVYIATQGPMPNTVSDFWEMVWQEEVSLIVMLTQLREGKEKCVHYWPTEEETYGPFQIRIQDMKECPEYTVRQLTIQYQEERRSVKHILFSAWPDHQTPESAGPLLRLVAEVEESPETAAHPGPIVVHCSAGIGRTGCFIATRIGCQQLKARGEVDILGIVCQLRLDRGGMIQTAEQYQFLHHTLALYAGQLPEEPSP
# [18] = target: Dual specificity protein phosphatase 6 (Rattus norvegicus, UniProt Q64346); format: functional;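 also: confirmatory in vitro dose-response testing of MKP-3 inhibition; recombinant His-tagged MKP-3 made in E. coli BL21 with OMFP substrate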
# Sequence of Dual specificity protein phosphatase 6 (Q64346 whole entry): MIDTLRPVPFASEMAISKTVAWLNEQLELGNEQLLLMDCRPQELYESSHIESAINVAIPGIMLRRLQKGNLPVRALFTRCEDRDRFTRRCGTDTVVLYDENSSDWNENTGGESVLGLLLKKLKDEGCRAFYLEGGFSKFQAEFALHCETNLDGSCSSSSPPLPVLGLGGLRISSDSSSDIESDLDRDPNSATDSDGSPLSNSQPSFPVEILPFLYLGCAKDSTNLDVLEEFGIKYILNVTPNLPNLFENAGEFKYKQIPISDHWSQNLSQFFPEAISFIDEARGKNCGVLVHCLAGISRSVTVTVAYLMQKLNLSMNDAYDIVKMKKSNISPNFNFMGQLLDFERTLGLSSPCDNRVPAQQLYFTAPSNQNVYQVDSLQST
# [19] = target: T5, Rac GTPase-activating protein 1 (Homo sapiens, UniProt Q9H0H5); assay: MgcRacGAP GTPase-activating activity inhibitors, confirmation, biochemical, ADP Hunter fluorescence, primary and confirmatory (AID 624330); format: functional
# T5 sequence (Q9H0H5 whole entry): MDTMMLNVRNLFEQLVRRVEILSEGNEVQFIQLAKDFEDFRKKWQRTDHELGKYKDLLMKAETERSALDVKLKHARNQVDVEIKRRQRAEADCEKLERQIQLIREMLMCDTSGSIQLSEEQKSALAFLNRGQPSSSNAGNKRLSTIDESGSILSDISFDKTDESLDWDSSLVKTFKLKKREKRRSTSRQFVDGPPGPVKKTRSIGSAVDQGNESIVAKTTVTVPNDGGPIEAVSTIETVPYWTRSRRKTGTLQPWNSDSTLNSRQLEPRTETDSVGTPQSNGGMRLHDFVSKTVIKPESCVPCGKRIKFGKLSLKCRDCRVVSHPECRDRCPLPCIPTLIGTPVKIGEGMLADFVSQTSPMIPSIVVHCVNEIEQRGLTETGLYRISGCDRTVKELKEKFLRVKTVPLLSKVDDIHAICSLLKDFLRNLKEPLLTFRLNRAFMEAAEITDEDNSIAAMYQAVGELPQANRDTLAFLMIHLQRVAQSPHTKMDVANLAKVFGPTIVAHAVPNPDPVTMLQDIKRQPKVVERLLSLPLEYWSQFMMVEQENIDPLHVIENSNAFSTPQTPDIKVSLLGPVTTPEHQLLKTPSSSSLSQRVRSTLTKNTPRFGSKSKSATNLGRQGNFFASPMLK
structure (smiles),measurement,setting,value
COc1cc(/C=C/[N+](=O)[O-])ccc1OCc1cccc(C(=O)O)c1,EC50,[1],2.43 µM (inconclusive)
same,EC50,[2],0.99 µM (active)
same,EC50,cells,> 12 µM (inconclusive)
same,EC50,[3],< 0.1 µM (active)
same,EC50,[4],0.161 µM (active)
same,IC50,[5],> 39.8 µM (not active)
same,IC50,[6],7.32 µM (active)
same,EC50,[7],0.937 µM (active)
same,IC50,[8],> 80 µM (inactive)
same,AC50,[9],11.9 µM (active)
COc1ccc(C2SCCN2C(S)=Nc2cccc(Cl)c2)cc1 (stereo unspecified),EC50,Vasopressin V1a receptor,> 29.9 µM (not active)
same,EC50,Oxytocin receptor,> 29.9 µM (not active)
Cn1c(SCC(=O)N2CCOCC2)nnc1-c1cccc(NC(=O)c2ccccc2)c1,IC50,[10],> 100 µM (inactive)
same,IC50,[11],2.81 µM (active)
same,IC50,[12],2.62 µM (active)
same,IC50,[13],3.37 µM (active)
c1csc(CNc2ncnc3ccc(-c4ccc5c(c4)OCO5)cc23)c1,AC50,Cytochrome P450 2C9,0.794 µM (inconclusive)
COC1(NS(=O)(=O)c2ccc(Br)cc2)C(C)=CC(=O)C=C1C,IC50,Hexokinase HKDC1,> 80 µM (inactive)
CCC(C)c1ccc(O)c(N)c1 (stereo unspecified),IC50,Aspartyl aminopeptidase,2.25 µM (active)
same,IC50,Procathepsin L,> 59.6 µM (not active)
COc1cc(C(S)=NC2CCCCC2)ccc1O,IC50,[14],> 100 µM (inactive)
same,IC50,[15],22.5 µM (active)
same,IC50,[16],3.4 µM (active)
same,IC50,[17],2.82 µM (active)
same,IC50,[18],> 100 µM (inactive)
same,IC50,[19],32.6 µM (active)
